Results published in US20220180963A1, “METHOD FOR SELECTING PATIENT SPECIFIC THERAPY” (YISSUM RESEARCH DEVELOPMENT COMPANY OF THE HEBREW …, priority 2018, published 2022).

Legend:
Type in all cases: cell-based
[1] = system: MCF7 cells; experiment: Survival of MCF7 cells after drug treatment (methylene blue); settings: maximal killing, FIG. 14H
Description: Schematic figures of each unbalanced process are shown. […] For each cell line the combination of drugs predicted to target the complete unbalanced signaling signature was tested (marked with an asterix), as well as combinations that were predicted to only partially target the unbalanced signaling flux, each drug alone and taxol. […] Stain-free imaging was used to ensure equal loading.
Indeed, 4-OHT killed only up to 50% of the cells (FIG. 14H). […] Similar to the case in MDA468 cells, the double combination consisting of T and LY was expected to target all unbalanced processes in these cells, however since there are 4 distinct unbalanced processes that need to be targeted, addition of a third drug is apparently necessary to enhance the effect (FIG. 14G-I).

[2] = system: MDA-MB-231 cells; experiment: Survival of MDA-MB-231 cells after drug treatment (methylene blue); settings: FIG. 14B; for killing / survival of MDA231 cells: methylene blue survival
Text: (§1) FIG. 14A-I. Experimental validation of the approach (14A, 14D, 14G) Diagrams of signaling signatures of MDA-MB-231, MDA-MB-468 and MCF7 cells, according to SA based analysis. Schematic figures of each unbalanced process are shown. Drug predictions are indicated for each cell line, including the processes that they are predicted to target. (14B, 14E, 14H) Bar charts of survival rates in response to different treatments (as measured by methylene blue). For each cell line the combination of drugs predicted to target the complete unbalanced signaling signature was tested (marked with an asterix), as well as combinations that were predicted to only partially target the unbalanced signaling flux, each drug alone and taxol. For MDA468 a triple combination was tested as well (marked with two asterix signs, shown in the inset in FIG. 14E). […] Stain-free imaging was used to ensure equal loading. […] Bar chart inserts show quantified relative expression of the investigated protein.
To validate the approach, we analyzed a dataset comprising RPPA measurements from 10 cell lines, including breast, ovarian, and oesophageal cancer, and assigned a barcode and drug combinations to each cell line. The predictions were made such that for each cell line, at least one protein hub from every active unbalanced process will be inhibited, aiming to collapse the sample-specific altered signaling network. Three breast cancer cell lines were chosen for experimental validation: MDA-MB-231 (MD231), MDA-MB-468 (MD468), and MCF7. The two formers represent triple negative breast cancer (TNBC) against which no targeted therapy exists in clinics today. TNBC is often treated with non-specific chemotherapy, such as taxol^1. MCF7 represent luminal type A breast cancer, routinely treated with the ERα inhibitor, tamoxifen, and in some cases chemotherapy such as taxanes.

[3] = system: MDA-MB-468 cells; experiment: Survival of MDA-MB-468 cells after drug treatment (methylene blue); settings: maximal killing, FIG. 14E
Text: as §1
To validate the approach, we analyzed a dataset comprising RPPA measurements from 10 cell lines, including breast, ovarian, and oesophageal cancer, and assigned a barcode and drug combinations to each cell line. The predictions were made such that for each cell line, at least one protein hub from every active unbalanced process will be inhibited, aiming to collapse the sample-specific altered signaling network. […]

Compound: 4-hydroxy tamoxifen [4-OHT]
- cells killed [1]: up to 50%

Compound: C#Cc1cccc(Nc2ncnc3cc(OCCOC)c(OCCOC)cc23)c1 [erlotinib]
- killing / survival of MDA231 cells [2]: no effect

Compound: CC(=O)O[C@H]1C(=O)[C@@]2(C)[C@H]([C@H](OC(=O)c3ccccc3)[C@]3(O)C[C@H](OC(=O)[C@H](O)[C@@H](NC(=O)c4ccccc4)c4ccccc4)C(C)=C1C3(C)C)[C@]1(OC(C)=O)CO[C@@H]1C[C@@H]2O [taxol]
- concentration at which efficacy of the treatment plateaued [2]: 100 nM
- killing / survival of MDA231 cells [2]: efficiently killed
- cells killed [3]: ~80%

Compound: CC(=O)Nc1cccc(-n2c(=O)n(C3CC3)c(=O)c3c(Nc4ccc(I)cc4F)n(C)c(=O)c(C)c32)c1 [trametinib]
- concentration at which efficacy of the treatment plateaued [2]: 100 nM
